Assay results reported in patent publication US20030181436A1, “Treatment for AIDS, HIV, and other related diseases and compounds for use therewith” (priority 2001, published 2003).
Values after ≈ are worked out from the molar mass of the structure shown. Where two headings read alike, the source gives them in different places.

Assays:
Assay type in all cases: cell-based
HIV = assay: PBMC time of addition assay; conditions: addition after 32 h of infection
Description: FIGS. 18 and 19 show the results of the time of addition assay with the K and Z compound. In time of addition assays the timed addition of compounds after initial infection allows the identification of specific stages of virus replication. This is seen with the positive control compound AZT. AZT is a reverse transcriptase inhibitor. […] Thus it has an antiviral target that is occurring after completion of reverse transcription. […] In general since this time of addition uses multiple rounds of infection in the PBMCs versus a single round in cell lines systems, lower concentrations of compound will often shift the curve to the left. This is seen in FIG. 18.

[1] = tested on: HIV RoJo (a clinical isolate); assay: Chronically infected PBMCs, supernatant reverse transcriptase activity; conditions: 7 day treatment
Procedure: Reverse transcriptase activity was measured in cell-free supernatants. Tritiated thymidine triphosphate (NEN) (TTP) was resuspended in distilled H2O at 5 Ci/mL. Poly rA and oligo dT were prepared as a stock solution which was kept at −20° C. The RT reaction buffer was prepared fresh on a daily basis and consists of 125 μL 1.0 M EGTA, 125 μL dH2O, 110 μL 10% SDS, 50 μL 1.0 M Tris (pH 7.4), 50 μL, 1.0 M DTT, and 40 μL 1.0 M MgCl2. These three solutions were mixed together in a ratio of 2 parts TTP, 1 part poly rA:oligo dT, and 1 part reaction buffer. Ten microliters of this reaction mixture was placed in a round bottom microtiter plate and 15 μL of virus containing supernatant was added and mixed. The plate was incubated at 37° C. in a water bath with a solid support to prevent submersion of the plate and incubated for 60 minutes. Following reaction, the reaction volume was spotted onto pieces of DE81 paper, washed 5 times for 5 minutes each in a 5% sodium phosphate buffer, 2 times for 1 minute each in distilled water, 2 times for 1 minute each in 70% ethanol, and then dried. Opti-Fluor O was added to each sample and incorporated radioactivity was quantitated utilizing a Wallac 1450 Microbetaplus liquid scintillation counter.
In these studies PBMCs are infected with HIV RoJo (a clinical isolate) and a dynamic population of infected PBMCs established over a period of 2 to 3 weeks. This population of infected PBMCs was established and maintained by the addition of fresh PBMCs in a 1:1 ratio every 7 days, thus overcoming the lost of PBMCs to normal cell death processes. Thus a population of cells was established that consisted of uninfected cells, short lived infected cells and long lived infected cells. In experiments where AZT was added to prevent re-infection of the population, we typically saw a 50% reduction in infection following a 7 day treatment. This means that 50% of the virus production from the infected […] population was due re-infection. […] Thus there was a population of infected PBMCs present ([…] of the total) which survived for extended periods of time and thus met the definition of being chronically infected.

[2] = tested on: HIV-1 attachment to HeLa CD4 LTR B-gal cells; assay: Inhibition of attachment assay; conditions: for IC50: attachment assay
Procedure: (§1) The attachment assay was performed with the HeLa CD4 LTR B-gal cells available from the AIDS Research and Reference Reagent Repository. […] HeLa CD4 LTR B-gal cells express cell surface CD4 and contain an LTR B-galactosidase reporter construct. Upon infection either the Tat protein incorporated into the virion or new Tat produced following virus integration and transcription trans-activate the LTR B-gal reporter, leading to expression of the B-galactosidase enzyme. HeLa CD4 LTR B-gal cells are routinely cultured with the required selection antibiotics and scrended for mycoplasma contamination. Twenty-four h prior to initiation of the assay cells were trypsinized, counted and 1×10^4 cells placed in a 0.2 cm well in media without selection antibiotics. Media was removed and compound media placed on the cells and incubated for 15 to 30 min at 37° C. A known titer of virus was then added to the wells and the incubation continued for 1 h. At the end of the incubation the wells were washed 6 times with media and the culture continued for 48 h. At 48 h the wells were washed one time with PBS and B-galactosidase enzyme expression determined by chemiluminescence per manufacturers instructions (Tropix Gal-screen TM, Tropix, Bedford, Mass.). Compound toxicity was monitored on sister plates using MTS dye reduction. (See Tables 14 through 16 and FIGS. 21 and 22).

HeLa CD4 LTR B-gal cells = assay: Attachment assay, toxicity on sister plates by MTS; conditions: for TC50: attachment assay
Procedure: as §1, with “reduction.” for “reduction. (See Tables 14 through 16 and FIGS. 21 and 22).”

HeLa CD4 LTR β-gal cells = assay: Cytotoxicity for HeLa CD4 LTR β-gal cells
Procedure: At assay termination the assay plates were stained with the soluble tetrazolium-based dye MTS (CellTiter® Reagent, Promega) to determined cell viability and quantify compound toxicity. […] At termination of the assay 20 μL of MTS reagent was added per well. The wells were incubated for 4 h at 37° C., 5% CO2. Adhesive plate scalers were used in place of the lids, the sealed plate was inverted several times to mix the soluble formazan product and the plate was read spectrophotometrically at 490 nm with a 650 nm reference wavelength on a Molecular Devices Vmax plate reader.
This cell line represents one of 3 standard models for performing time of addition assays.

Structure (SMILES): Cc1cn([C@H]2C[C@H](N=[N+]=[N-])[C@@H](CO)O2)c(=O)[nH]c1=O [AZT, reference compound]
- effect on virus replication (HIV): no significant effect
- reduction in infection [1]: 50%

Structure (SMILES): COc1cc(-c2ccc(/N=N/c3ccc4c(S(=O)(=O)O)cc(S(=O)(=O)O)c(N)c4c3O)c(OC)c2)ccc1/N=N/c1ccc2c(S(=O)(=O)O)cc(S(=O)(=O)O)c(N)c2c1O [Chicago Sky Blue]
- % VC ([2]; CONC 0.032): 90.6%
- RLU (Relative Light Units) MEAN ([2]; CONC 0.032): 127754.7 RLU
- % VC ([2]; CONC 0.1): 74.5%
- RLU (Relative Light Units) MEAN ([2]; CONC 0.1): 105105.3 RLU
- % VC ([2]; CONC 0.32): 48.2%
- RLU (Relative Light Units) MEAN ([2]; CONC 0.32): 67955.7 RLU
- % VC ([2]; CONC 1): 10.9%
- RLU (Relative Light Units) MEAN ([2]; CONC 1): 15363.3 RLU
- % VC ([2]; CONC 3.2): 8.3%
- RLU (Relative Light Units) MEAN ([2]; CONC 3.2): 11753.3 RLU
- % VC ([2]; CONC 10): 8.0%
- RLU (Relative Light Units) MEAN ([2]; CONC 10): 11266.7 RLU
- IC50 ([2]; Human immunodeficiency virus 1, HeLa, read-out: IC50): 0.3 µg/mL (≈ 0.332 µM)
- IC50 ([2]; listed as CHICAGO SKY BLUE): IC50 (μG/mL) = 0.30 μg/mL
- % CC (HeLa CD4 LTR B-gal cells; CONC 0.032): 93.3%
- TOXICITY VALUES (Cell Titer) MEAN (HeLa CD4 LTR B-gal cells; CONC 0.032): 1.259 O. D.
- % CC (HeLa CD4 LTR B-gal cells; CONC 0.1): 80.8%
- TOXICITY VALUES (Cell Titer) MEAN (HeLa CD4 LTR B-gal cells; CONC 0.1): 1.090 O. D.
- % CC (HeLa CD4 LTR B-gal cells; CONC 0.32): 84.7%
- TOXICITY VALUES (Cell Titer) MEAN (HeLa CD4 LTR B-gal cells; CONC 0.32): 1.142 O. D.
- % CC (HeLa CD4 LTR B-gal cells; CONC 1): 82.6%
- TOXICITY VALUES (Cell Titer) MEAN (HeLa CD4 LTR B-gal cells; CONC 1): 1.115 O. D.
- % CC (HeLa CD4 LTR B-gal cells; CONC 3.2): 83.3%
- TOXICITY VALUES (Cell Titer) MEAN (HeLa CD4 LTR B-gal cells; CONC 3.2): 1.123 O. D.
- % CC (HeLa CD4 LTR B-gal cells; CONC 10): 73.3%
- TOXICITY VALUES (Cell Titer) MEAN (HeLa CD4 LTR B-gal cells; CONC 10): 0.989 O. D.
- TC50 (HeLa CD4 LTR B-gal cells): >10 µg/mL
- TC50 (HeLa CD4 LTR B-gal cells; listed as CHICAGO SKY BLUE): TC50 (μG/mL) = >.10 μg/mL

Structure (SMILES): C[S+](C)[O-] [DMSO]
- % CC (HeLa CD4 LTR β-gal cells; dilution 1:50): 111.0%
- TOXICITY VALUES (Cell Titer) MEAN (HeLa CD4 LTR β-gal cells; dilution 1:50): 1.167 O. D.
- % CC (HeLa CD4 LTR β-gal cells; dilution 1:1600): 103.2%
- TOXICITY VALUES (Cell Titer) MEAN (HeLa CD4 LTR β-gal cells; dilution 1:1600): 1.085 O. D.
- % CC (HeLa CD4 LTR β-gal cells; dilution 1:5000): 105.9%
- TOXICITY VALUES (Cell Titer) MEAN (HeLa CD4 LTR β-gal cells; dilution 1:5000): 1.113 O. D.
- % CC (HeLa CD4 LTR β-gal cells; dilution 1:16000): 99.1%
- TOXICITY VALUES (Cell Titer) MEAN (HeLa CD4 LTR β-gal cells; dilution 1:16000): 1.042 O. D.
- % CC (HeLa CD4 LTR β-gal cells; dilution 1.500): 101.0%
- TOXICITY VALUES (Cell Titer) MEAN (HeLa CD4 LTR β-gal cells; dilution 1.500): 1.062 O. D.
- % CC (HeLa CD4 LTR β-gal cells; dilution 11110): 111.0%
- TOXICITY VALUES (Cell Titer) MEAN (HeLa CD4 LTR β-gal cells; dilution 11110): 1.167 O. D.
